Measurements published in patent US12649730B2 (MITOIMMUNE THERAPEUTICS INC., priority 2021, dated 2026).
Read-outs that look alike come from different tables or passages of the source.

Key:
[1] = system: MPTP-induced Parkinson's disease mouse model; experiment: TH (Tyrosine hydroxylase) staining of brain tissue in MPTP-induced Parkinson's disease mouse model; format: in vivo, C57BL/6 mice; conditions: medium and high doses
Description: Behavioral disorders were induced by administering 20 mg/kg MPTP to C57BL/6 mice a total of 4 times at 2 hour intervals. […] On the 6th day after administration of the compound of Formula 1, mice were sacrificed, frozen sections of brain tissue were prepared, and TH (Tyrosine hydroxylase) staining was performed.

[2] = system: C8-D1A cells; experiment: Peroxynitrite removal in astrocytes under SIN-1 (DAX-J2 PON Green); format: cell-based; conditions: 10 μM and 30 μM, 200 μM SIN-1
Description: (§1) To confirm the effect of removing peroxynitrite produced from macrophages, RAW264.7 cells were seeded in a 96 well plate at 1×10^5 cells/well and cultured for 24 hours. Peroxynitrite was measured by fluorescence measurement using DAX-J2™ PON Green dye. […] Thereafter, SIN-1 was treated to a final concentration of 200 μM, and the amount of peroxynitrite generated in the cell every 2 minutes in real time was measured through fluorescence intensity. To confirm the effect of removing peroxynitrite from astrocytes, C8-D1A cells were seeded in a 96 well plate at 6×10^4 cells/well and cultured for 24 hours, and the experiment was performed under the same conditions. […] The horizontal axis represents the concentrations of the compound of Formula 1 and ascorbic acid, and V.C is the control treated with only the vehicle, and the concentration of intracellular peroxynitrite increases the most during SIN-1 treatment. The vertical axis represents the total amount of peroxynitrite generated 1 hour after SIN-1 treatment.

[3] = system: H9C2 cells; experiment: Intra-mitochondrial superoxide imaging with MitoSOX under tBHP; format: cell-based; conditions: 1 μM compound, 50 μM tBHP 1 hour
Description: To measure the superoxides among the reactive oxygen species occurring in mitochondria, intracellular fluorescent imaging was used by using MitoSOX™ (Red Mitochondrial Superoxide Indicator). […] The cell culture medium was replaced with a medium without phenol red, then the cells were treated for 30 minutes with HOECHST (0.5 drop/ml), MitoTracker Green (150 nM) and MitoSOX (2 μM) before observing intracellular fluorescence through imaging.

[4] = Solubility equilibrium in DMSO/EtOH mixed solvent by temperature; format: physicochemical; conditions: organic solvent or mixture, thermodynamic from solid
Description: These were respectively heated and held at 50° C., 60° C., and 75° C. while being agitated for 6 hours. […] Accordingly, it was decided that a super-saturation method would be considered.

[5] = system: MPTP-induced Parkinson's disease mouse model; experiment: Grip strength test in MPTP-induced Parkinson's disease mouse model; format: in vivo, C57BL/6 mice; conditions: intraperitoneally once a day, low, medium and high doses, 6 days from 2 days after MPTP
[6] = system: H9C2 cells; experiment: Intra-mitochondrial reactive oxygen species, DHR-123 fluorometry under tBHP; format: cell-based; conditions: 0.0001 to 30 μM compound, 400 μM tBHP
Description: To examine the intra-mitochondrial reactive oxygen species removal effect in cardiomyocytes, H9C2 cells were placed in a 96 well plate at 1.5×10^4 cells/well and cultured for 24 hours. To measure mitochondria-specific reactive oxygen species, fluorometry using dihydrorhodamine-123 (DHR-123) was used.

[7] = system: MPTP-induced Parkinson's disease mouse model; experiment: Pole test in MPTP-induced Parkinson's disease mouse model; format: in vivo, C57BL/6 mice; conditions: intraperitoneally once a day, low, medium and high doses, 6 days from 2 days after MPTP
[8] = system: H9C2 cells; experiment: Cytoplasmic calcium concentration under tBHP treatment (FLIPR Calcium 6 assay kit); format: cell-based; conditions: 150 μM tBHP
Description: To examine the calcium concentration maintenance effect in cardiomyocytes, H9C2 cells were placed in a 96 well plate at 1.5×10^4 cells/well and cultured for 24 hours. To measure cytoplasmic calcium concentration, a FLIPR Calcium 6 assay kit (Molecular devices; #R8190) was used. Following the manufacturer's experimental method, the cells were treated with probenecid and calcium-specific dye. […] For stimulation of cells, the cells were treated with tBHP to a final concentration of 150 μM, then cytoplasmic calcium concentration was measured every 30 seconds in real time. […] The ΔF/F (Max-Min) value of the vertical axis is the difference between the maximum and minimum values for the fluorescence value of calcium-specific dye after tBHP treatment. The ΔF/F value increases with cytoplasmic calcium concentration. The horizontal axis indicates the concentration of Chemical Formula 1, and V.C. is a control only treated with the vehicle, where cytoplasmic calcium concentration increases most when treated with tBHP.

[9] = system: H9C2 cells; experiment: Mitochondrial calcium imaging with Rhod-2 under tBHP, thapsigargin and CaCl2; format: cell-based; conditions: 10 μM compound, 150 μM tBHP, 1.2 μM thapsigargin, 2 mM CaCl2
Description: In addition, in order to confirm the effect of inhibiting the increase in mitochondrial calcium concentration in cardiomyocytes by cell imaging, H9C2 cells were seeded in a 35 mm culture dish at 1.5×10^4 cells and cultured for 24 hours. Imaging of calcium concentration in mitochondria was performed using Rhod-2. The cells were treated with Rhod-2, MitoTracker Green (200 nM), and Hoechst33342 (2 drops/ml) for 50 minutes, washed twice with KRB buffer, and incubated for another 30 minutes with buffer solution. The cells were treated with the compound of Formula 1 for 0.25 hours to final concentration of 10 μM, and treated with tBHP for 30 minutes to final concentration of 150 μM. Then, the cells were treated with 1.2 μM thapsigargin for 10 minutes and 2 mM of CaCl2, and the fluorescence developed in mitochondrial calcium of the living cells was observed through imaging.

[10] = system: RAW264.7 cells; experiment: Peroxynitrite removal in macrophages under SIN-1 (DAX-J2 PON Green); format: cell-based; conditions: RAW264.7 macrophages, 10 μM and 30 μM, 200 μM SIN-1
Description: as §1

[11] = Solubility screening of the compound of Chemical Formula 1 in various solvents (supernatant, HPLC); format: physicochemical
[12] = intraperitoneally once a day, low, 6 days

Q: What does the source list for `O=S1(=O)CCN(Cc2cc(NC3CCOCC3)c3[nH]c(-c4ccccc4)cc3c2)CC1` [compound of Chemical Formula 1, 5-[(1,1-dioxido-4-thiomorpholinyl)methyl]-2-phenyl-N-(tetrahydro-2H-pyran-4-yl)-1H-indol-7-amine]?
A: TH level in the striatum [1, 12]: recovered in a concentration-dependent manner; TH level in the substantia nigra [1, 12]: recovered in a concentration-dependent manner; TH level in the striatum [1]: significantly increased; Peroxynitrite inhibition compared with positive control ascorbic acid [2]: superior inhibitory effect than ascorbic acid; Total peroxynitrite generated 1 hour after SIN-1 treatment [2]: peroxynitrite generation was inhibited by treatment with the compound of Formula 1 in a concentration-dependent manner; Intra-mitochondrial superoxide (MitoSOX fluorescence) [3]: effectively removes intra-mitochondrial reactive oxygen species including superoxides; solubility at 6 h ([4]; DMSO/EtOH 1:4 mixed solvent, DMSO/EtOH 1:4, 50° C.): 15 mg/mL; solubility at 6 h ([4]; DMSO/EtOH 1:4 mixed solvent, DMSO/EtOH 1:4, 60° C.): 19 mg/mL; solubility at 6 h ([4]; DMSO/EtOH 1:4 mixed solvent, DMSO/EtOH 1:4, 75° C.): 31 mg/mL; solubility at 6 h ([4]; DMSO/EtOH 1:5 mixed solvent, DMSO/EtOH 1:5, 50° C.): 12 mg/mL; solubility at 6 h ([4]; DMSO/EtOH 1:5 mixed solvent, DMSO/EtOH 1:5, 60° C.): 14 mg/mL; solubility at 6 h ([4]; DMSO/EtOH 1:5 mixed solvent, DMSO/EtOH 1:5, 75° C.): 19 mg/mL; Grip force value [5]: restored in a concentration-dependent manner; Total intra-mitochondrial reactive oxygen species over 2 hours after tBHP (DHR-123) [6]: inhibit occurrence of reactive oxygen species in a concentration-dependent manner; Pole test T-turn time [7]: recovered in a concentration-dependent manner; Pole test total time [7]: recovered in a concentration-dependent manner; Cytoplasmic calcium concentration (ΔF/F Max-Min) after tBHP ([8]; 0.01 μM compound): reduced; Cytoplasmic calcium concentration (ΔF/F Max-Min) after tBHP ([8]; 0.1 μM compound): normal level of cytoplasmic calcium concentration; Mitochondrial calcium concentration (Rhod-2 fluorescence) [9]: effectively inhibited the increase in the calcium concentration in mitochondria; Peroxynitrite inhibition compared with positive control ascorbic acid [10]: superior inhibitory effect than ascorbic acid; Total peroxynitrite generated 1 hour after SIN-1 treatment [10]: peroxynitrite generation was inhibited by treatment with the compound of Formula 1 in a concentration-dependent manner; Solubility ([11]; Heptane, 25° C.): <LOQ; Solubility ([11]; Heptane, 50° C.): <LOQ; Solubility ([11]; MTBE, 25° C.): 0.06 mg/mL; Solubility ([11]; MTBE, 50° C.): 0.07 mg/mL; Solubility ([11]; THF, 25° C.): 17.40 mg/mL; Solubility ([11]; in most solvents (Table 3)): very low; Solubility ([11]; organic solvent or mixture, thermodynamic from solid, in DMF, NMP and DMSO (Table 3), read-out: Solubility): ≥ 40 mg/mL
